Assay results as given in patent publication US8241903B2, “Catecholamine receptor modulation” (Yeda Research and Development Co., Ltd., priority 2006, dated 2012).

Tests used:
[1] = tested on: murine bone marrow mononuclear cells; assay: Spontaneous migration of bone marrow mononuclear cells from treated mice; type: in vivo; settings: cells from mice treated with G-CSF plus agonist compared to G-CSF alone
[2] = tested on: human CD34+ cells; assay: Engraftment of ex-vivo treated human CD34+ cells in bone marrow of irradiated NOD/SCID mice; settings: for engraftment in the murine BM compared to control cells: MPB CD34+ cells incubated 2-4 days with 1 μM SKF or 100 ng/ml 7-OH-DPAT before injection, human CD45 in BM 5 weeks post injection; for engraftment of human CD34+ cells in NOD/SCID mice: cord blood CD34+ cells incubated 2 days with GM-CSF 5 ng/ml with or without the neurotransmitter prior to injection
Description: (ii) Mice. […] Eight-ten week old mice were sublethally irradiated (375 cGy, from a 60 Co source) and transplanted with human cells as indicated (2×10^5 cells/mouse) 24 hours post irradiation.
(iii) Cell transplantation. Cells were injected into the tail vein of NOD/SCID in 0.5 ml of RPMI supplemented with 10% FCS.
(iv) Assessment of cell engraftment. Recipient mice were irradiated with a sublethal (350 cGy) dose from a Cesium source 24 hours prior to injection of cells. MPB or CB CD34^+ cells (2-3×10^5/mouse) were treated with SKF or 7-OH-DPAT for 2-4 days and injected i.v. into NOD/SCID mice. Mice were sacrificed 5-6 weeks post transplantation of human cells for assessing human cell engraftment assessment. BM (femur, tibia and pelvis bones flushed with a syringe), spleen, and peripheral blood cells were harvested and resuspended into single cell suspensions. WBCs were counted and in some experiments MNCs were isolated from samples by standard separation on Ficol-Hypaque (Pharmacia Biotech). Human cell engraftment was assayed by flow cytometry (FACSCalibur, BD). Cells were triple-stained with CD45-FITC, CD38-PE and CD34-APC (Becton Dickinson) antibodies. Human plasma and mouse IgG were used to block Fc receptors. Human leukocytes were gated according to their expression of the pan-leukocyte marker CD45, and amongst this population the percentage of CD34^+/CD38^−/low primitive cells was determined.
To assess the effect of dopamine receptor on engraftment of stem cells, mobilized peripheral blood (MPB) enriched human CD34^+ cells treated ex-vivo with the dopamine agonists SKF or 7-OH-DPAT were transplanted in NOD/SCID mice and engraftment of human cell in the murine BM was determined. Briefly, 1-3×10^5 MPB CD34^+ cells were incubated for 2-4 days at 37° C. in RPMI supplemented with 10% FCS, penicillin streptomycin and L-Glutamine and treated with the dopamine receptor agonists (1 μM) SKF or (100 ng/ml) 7-OH-DPAT or were left untreated. After the incubation, the cells were injected in irradiated NOD/SCID mice. The mice were sacrificed 5 weeks post injection, BM was extracted and the BM cells were labeled for the human CD45 marker.
The experimental conditions were similar to those conducted with the dopamine agonists. […] For engraftment assay, cells were incubated for 2 days in RPMI supplemented with GM-CSF 5 ng/ml.

[3] = tested on: cord blood CD34+ cells; assay: Polarization of CB CD34+ cells upon adhesion to hyaluronic acid; type: cell-based, human; settings: CB CD34+ cells on HA-coated cover slips, 2 hours at 37° C.
Description: Enriched CB CD34^+ cells (1×10^5 to 2×10^5 cells per well) were plated on HA-coated cover slips for 2 hours at 37° C., either untreated or treated with SKF or 7-OH-DPAT. Samples were processed for microscopic observation as described (Goichberg et al., 2001). In brief, the adherent cells were fixed with 3% paraformaldehyde (Merck, Darmstadt, Germany) and, if indicated, permeabilized in 0.5% Triton X-100 (Sigma-Aldrich). Samples were indirectly immunolabeled at room temperature in a humidified chamber with using purified polyclonal rabbit anti human Dopamine D5 antibodies (Calbiochem, Nottingham, UK) (MCAP89; Serotec). The secondary antibodies used were Goat anti rabbit Alexa 488 conjugated (Molecular Probes, Eugene Oreg.). Phalloidin—TRITC used to detect polymerized actin, was purchased from Sigma-Aldrich. Following labeling, cells were mounted in Elvanol (Mowiol 4-88, Hoechst, Frankfurt, Germany). Immunofluorescence images were acquired using scientific-grade CCD camera and processed by the Delta Vision system using Resolve 3D software (Applied Precision, Issaquah, Wash.).
We assessed changes in morphology of cord blood CD34^+ cells upon adhesion to hyaluronic in the presence or the absence of the dopamine agonists SFK or 7-OH-DPAT.

[4] = tested on: cord blood CD34+ cells; assay: Progenitor colony forming assay (CFU) in semi solid cultures; type: cell-based, human; settings: for colony (CFU-C) formation in the presence of GM-CSF: IL-3 plus GM-CSF 5 ng/ml, scored day 14; for colony (CFU-C) formation in the presence of GM-CSF / colony formation, culture not supplemented with myeloid cytokines: SKF 1 μM or 7-OH-DPAT 100 nM; for colony formation, culture not supplemented with myeloid cytokines: no GM-CSF or G-CSF; for clonogenic capacity of human cord blood CD34+ cells: epinephrine 10 nM, norepinephrine 1 and 10 nM added to the methyl cellulose
Description: (vii) Progenitor colony forming assay (CFU). In order to detect the levels of human progenitors, semisolid cultures were carried out as previously described (Peled et al. 1999). In brief, CD34^+ cells (1×10^3 cells/ml) were plated in 0.9% methylcellulose (Sigma), 30% FCS, 5×10^−5M 2ME, 50 ng/ml SCF, 5 ng/ml IL-3, 5 ng/ml GM-CSF (R&D), and 2 u/ml Erythropoietin (Orto Bio Tech, Don Mills, Canada) together with the dopamine agonists/antagonist. In some experiments the cells were pre-incubated for 4 days with the agonists/antagonist prior to plating in the semisolid culture. The cultures were incubated at 37° C. in a humidified atmosphere containing 5% CO2 and scored 14 days later for myeloid or erythroid colonies by morphologic criteria. In experiments where the level of in vivo engraftment by primitive human cells was determined, the semisolid media contained 15% human plasma and 15% FCS.
GM-CSF and G-CSF are known for their role in myeloid differentiation and in stem cell regulation. It is common practice to add these cytokines to progenitor colony forming assay (CFU) in order to facilitate detection of human progenitors. […] We therefore tested whether up regulation of dopamine receptor levels affects progenitor development in vitro. For this purpose cord blood CD34^+ cells were seeded in semi solid cultures (1×10^3 cells/ml in 1 ml) supplemented with the cytokines Epo (2 u/ml; Orto Bio Tech, Don Mills, Canada.), SCF (50 ng/ml; R&D) and IL-3 (5 ng/ml R&D) and with GM-CSF (5 ng/ml; R&D) or G-CSF (100 ng/ml; Roche) in order to up regulate dopamine receptor levels. To evaluate the effect of increased dopamine receptor activity, the semi solid cultures were supplemented with dopamine agonist SKF (1 μM) or 7-OH-DPAT (100 nM) or with medium as a control.
Next, the effect of the adrenergic neurotransmitters epinephrine (10 nM) and norepinephrine (1 and 10 nM) on proliferation of human CD34+ cells was assessed. The experimental conditions were similar to those conducted with the dopamine agonists. For colony assay, epinephrine and norepinephrine were added to the methyl cellulose. […] For engraftment assay, cells were incubated for 2 days in RPMI supplemented with GM-CSF 5 ng/ml.

[5] = tested on: BM cells; assay: Bone marrow cellularity (WBC) after 5 daily i.p. injections in mice; type: in vivo; settings: WBC on day 5, 4 hrs after last injection
Description: For this purpose, mice were injected with 5 daily i.p injections of the dopamine agonist 7-OH-DPAT (1.5 mg/kg) or antagonist flupenthixol 5 (3 mg/kg) or remained untreated and the bone marrow cell mass was determined. On day 5, 4 hrs after last injection, mice were sacrificed, BM cells were flushed from BM (with a syringe), and White Blood Count (WBC) was determined.

[6] = tested on: human CD34+ cells
Description: (viii) Chemotaxis assays. Chemotaxis experiments were assayed using transwells (6.5 mm diameter, 5 μm pore; Corning Inc., Corning, N.Y.) as previously described (1). […] Migrating cells were counted using FACSCalibur (Becton Dickinson).
We tested the effect of dopamine (1 nM-1 uM) on in vitro migration potential of immature human CD34^+ cells (50,000-100,000 cells in 100 ul). […] Since dopamine is highly oxidative, its agonists were used, particularly in treatments requiring longer incubation periods (FIG. 6D).

[7] = tested on: dopamine receptors 3 and 5 in CD34+/CD38-/low cells; assay: In vitro 3-day incubation with GM-CSF, dopamine receptor staining; type: cell-based, human; settings: 3-day incubation with GM-CSF 5 ng/ml; MPB, normal BM or cord blood cells
Description: (§1) (vi) Flow cytometry analysis. Phenotypes of human and murine cells were examined by immunostaining, followed by flow cytometry analysis on FACSCalibur (Becton Dickinson, San Jose, Calif.) with CellQuest software. Single cell suspension were prepared in PBS containing 0.01% sodium azide and 1% FCS. Human plasma and mouse IgG were used to block human and murine Fc-receptors. Isotype-matched control antibodies were used to exclude false positive cells. Staining was performed in 4° C. for 30 minutes. Engraftment of human cells was examined by staining with mouse anti-human CD45-Fitc, CD38-PE and CD34-APC (Becton Dickinson). Human leukocytes were gated according to their expression of the pan-leukocyte marker CD45, and amongst this population the percentage of CD34+/CD38−/low primitive cells was determined. In several experiments dopamine receptor expression on CD34+/CD38−/low was tested, cells were triple stained with mouse anti-human CD38-PE, CD34-APC and rabbit anti human dopamine receptor 3 or 5 (Calbiochem, Nottingham, UK) followed by secondary antibodies goat anti rabbit alexa 488 (Molecular Probes, Eugene, Oreg.). After staining, cells were washed in FACS buffer and analyzed by fluorescence-activated cell sorting (FACSCalibur and CellQuest software, Becton Dickinson). […]

[8] = tested on: dopamine receptors type 3 and 5 on the surface of CD34+ enriched cells; assay: Flow cytometry of dopamine receptor expression on CD34+ cells from BM of G-CSF treated or untreated donors; type: in vivo, human; settings: CD34+ cells from BM of G-CSF treated healthy donors vs BM of untreated healthy donors
Text: (i) Human cells and reagents. Human cord blood (CB), adult G-CSF mobilized peripheral blood (MPBL) and BM from normal or G-CSF treated donors mononuclear cells were obtained after informed consent in accordance with procedures approved by the human ethics committee of the Weizmann Institute of Science. The cell surface protein CD34 is frequently used as a marker for positive selection of human hematopoietic stem/progenitor cells in research and in transplantation. CD34^+ cell enrichment was performed using magnetic bead separation as previously described (Spiegel A et al Blood 2004; 2900-7). Cells were cultured in RPMI 1640 medium supplemented with 10% heat-inactivated FCS, antibiotics and glutamine.
Human CB cells were obtained from full-term deliveries after informed consent. Blood samples were diluted 1:1 in PBS. […]
(vi) Flow cytometry analysis. […] Human leukocytes were gated according to their expression of the pan-leukocyte marker CD45, and amongst this population the percentage of CD34+/CD38−/low primitive cells was determined. […] After staining, cells were washed in FACS buffer and analyzed by fluorescence-activated cell sorting (FACSCalibur and CellQuest software, Becton Dickinson).
Expression of dopamine receptors type 3 and 5 was evaluated on the surface of CD34^+ enriched cells that were obtained from different sources. […]

[9] = tested on: dopamine receptor 3 and 5 on human CD34+/CD38-/low cells; assay: Dopamine receptor expression on human cells from BM of G-CSF treated chimeric NOD/SCID mice; type: in vivo, human cells in NOD/SCID mice; settings: 5 daily s.c. injections of G-CSF
Description: Mobilization in NOD/SCID mice engrafted with human cells was performed as follows: mice received a daily subcutaneous injection of G-CSF (Filgrastim, […] in […] 0.9% NaCl, 5% fetal calf serum (FCS), pH 4.55) for 5 consecutive days and were sacrificed 4 hrs after the last injection. Peripheral blood from mice asphyxied with dry ice was collected by cardiac aspiration in heparinized tubes. Number of WBC in the peripheral blood was determined.
as §1, with “Engraftment of human cells was examined by staining with mouse anti-human CD45-Fitc, CD38-PE and CD34-APC (Becton Dickinson).” left out, “In several experiments dopamine receptor expression on CD34+/CD38−/low was tested, cells were triple stained with mouse anti-human CD38-PE, CD34-APC and rabbit anti human dopamine receptor 3 or 5 (Calbiochem, Nottingham, UK) followed by secondary antibodies goat anti rabbit alexa 488 (Molecular Probes, Eugene, Oreg.).” left out

[10] = tested on: beta-2 adrenergic receptor on CD34+ cells; assay: Flow cytometry of beta-2 adrenergic receptor on CD34+ cells; set-up: species or system human; settings: in vivo G-CSF stimulated (mobilized) peripheral blood CD34+ cells
Text: We carried out experiments in order to test whether CD34+ cells are regulated by additional catecholamines neurotransmitters.

In the case of `Cl.Oc1cc2c(cc1O)C(c1ccccc1)CNCC2` (single isomer, unassigned; (+)) [SKF, (+)-1-phenyl-2,3,4,5-tetrahydro(1H)-3-benzazepine-7,8-diol hydrochloride], the “spontaneous migration of murine bone marrow mononuclear cells” value [1] is reported as “higher spontaneous migration”, the “engraftment in the murine BM compared to control cells” value [2] is reported as 2 fold and the “percent of cells that exhibited polarized morphology compared to control” value [3] is reported as “more than doubled”. The “colony (CFU-C) formation in the presence of GM-CSF” value ([4]; CB CD34+ cells, Epo, SCF) was “augmented” and the “colony formation, culture not supplemented with myeloid cytokines” value ([4]; CB CD34+ cells) was “No increase”.

`CCCN(CCC)C1CCc2ccc(O)cc2C1` (stereo not shown) [7-OH-DPAT, 7-hydroxy-2-dipropylaminotetralin] was tested, and the “spontaneous migration of murine bone marrow mononuclear cells” value [1] was “higher spontaneous migration”, the “engraftment in the murine BM compared to control cells” value [2] was 2 fold and the “percent of cells that exhibited polarized morphology compared to control” value [3] was “more than doubled”. For the same molecule, the “increase in BM cellularity” value ([5]; 7-OH-DPAT 1.5 mg/kg) was 50%, the “colony formation in the presence of G-CSF” value ([4]; CB CD34+ cells, Epo, SCF, IL-3 plus G-CSF 100 ng/ml, 7-OH-DPAT 100 nM) was “the largest increase” and the “colony (CFU-C) formation in the presence of GM-CSF” value ([4]; CB CD34+ cells, Epo, SCF) was “increased colony formation”. The “colony formation, culture not supplemented with myeloid cytokines” value ([4]; CB CD34+ cells) was “No increase”.

`CN1CCN(C2=Nc3cc(Cl)ccc3Nc3ccccc32)CC1` [clozapine] showed a decrease in engraftment ([2]; MPB CD34+ cells pretreated with antagonist prior to injection, 5 weeks) of 50%.

For `NCCc1ccc(O)c(O)c1` [dopamine], the “migration of cord blood CD34+ enriched cells towards dopamine in the lower chamber” value ([6]; cells pre-treated with GM-CSF, dopamine 10 nM (tested 1 nM-1 uM)) was “significantly increased” and the “migration of cord blood CD34+ cells towards dopamine, cells not pre-treated with GM-CSF” value ([6]; no GM-CSF pre-treatment, data not shown) was “not detected”.

In the case of `CNC[C@H](O)c1ccc(O)c(O)c1` [epinephrine], the “engraftment of human CD34+ cells in NOD/SCID mice” value [2] is reported as “enhance engraftment” and the “clonogenic capacity of human cord blood CD34+ cells” value [4] is reported as “increase the clonogenic capacity”.

For `OCCN1CCN(CCC=C2c3ccccc3Sc3ccc(C(F)(F)F)cc32)CC1` [flupenthixol, 2-[4-[3-[2-(trifluoromethyl)thioxanthen-9-ylidene]propyl]piperazin-1-yl]ethanol], the “decrease in BM cellularity” value ([5]; flupenthixol 3 mg/kg) was 25%.

`NC[C@H](O)c1ccc(O)c(O)c1` [norepinephrine] was tested, and the “engraftment of human CD34+ cells in NOD/SCID mice” value [2] was “enhance engraftment”, the “clonogenic capacity of human cord blood CD34+ cells” value [4] was “increase the clonogenic capacity” and the “migration of CD34+ cells towards norepinephrine in the lower well” value ([6]; CB (GM-CSF pretreated) or MPB CD34+ cells, 1 or 10 nM norepinephrine) was “increased migration”.

For “GM-CSF: myeloid cytokine, granulocyte/macrophage-colony stimulating factor”, the “levels of dopamine receptors 3 and 5 in CD34+/CD38-/low cells” value [7] was “up regulated”.

B1: G-CSF: myeloid cytokine, granulocyte colony-stimulating factor (Filgrastim, Roche) (protein, chains of the INN, looked up)
chain: MTPLGPASSLPQSFLLKCLEQVRKIQGDGAALQEKLCATYKLCHPEELVLLGHSLGIPWAPLSSCPSQALQLAGCLSQLHSGLFLYQGLLQALEGISPELGPTLDTLQLDVADFATTIWQQMEELGMAPALQPTQGAMPAFASAFQRRAGGVLVASHLQSFLEVSYRVLRHLAQP
With B1 the “expression of dopamine receptor on the surface of enriched CD34+ cells, higher than untreated donors” value [8] was 2-4 folds, the “level of dopamine receptor expression in the CD34+/CD38-/low cell population” value [9] was “increase” and the “levels of β2-adrenergic receptor on CD34+ cells” value [10] was “higher levels”.
